Measured values as given in patent US12168763B2, “Microorganisms and methods for reducing bacterial contamination” (Melio Peptide Systems Inc., priority 2020, dated 2024).

system: L. fermentum NCCB 46038; experiment: Soft-agar overlay assay of S. cerevisiae BY4742 secreting persulcatusin variants from pHVXU plasmids; conditions: alanine scanning of persulcatusin; relative to wild-type; soft-agar overlay

Substance	Change in activity
C4A: persulcatusin (SEQ ID NO: 1) alanine-scan variant C4A (GFGAPFNQGACHRHCRSIGRRGGYCAGLFKQTCTCYSR; listed as Ixodes persulcatus) [Mutation C4A]	−
C11A: persulcatusin (SEQ ID NO: 1) alanine-scan variant C11A (GFGCPFNQGAAHRHCRSIGRRGGYCAGLFKQTCTCYSR; listed as Ixodes persulcatus) [Mutation C11A]	−
C15A: persulcatusin (SEQ ID NO: 1) alanine-scan variant C15A (GFGCPFNQGACHRHARSIGRRGGYCAGLFKQTCTCYSR; listed as Ixodes persulcatus) [Mutation C15A]	−
C25A: persulcatusin (SEQ ID NO: 1) alanine-scan variant C25A (GFGCPFNQGACHRHCRSIGRRGGYAAGLFKQTCTCYSR; listed as Ixodes persulcatus) [Mutation C25A]	−
C33A: persulcatusin (SEQ ID NO: 1) alanine-scan variant C33A (GFGCPFNQGACHRHCRSIGRRGGYCAGLFKQTATCYSR; listed as Ixodes persulcatus) [Mutation C33A]	−
C35A: persulcatusin (SEQ ID NO: 1) alanine-scan variant C35A (GFGCPFNQGACHRHCRSIGRRGGYCAGLFKQTCTAYSR; listed as Ixodes persulcatus) [Mutation C35A]	−
Engineered persulcatusin with [Mutation F6A, Engineered persulcatusin with [F6A]]	+
Engineered persulcatusin with [Mutation F29A, Engineered persulcatusin with [F29A]]	+
Engineered persulcatusin with [Mutation L28A, Engineered persulcatusin with [L28A]]	+
Engineered persulcatusin with [Mutation R13A, Engineered persulcatusin with [R13A]]	+
Engineered persulcatusin with [Mutation R16A, Engineered persulcatusin with [R16A]]	+
Engineered persulcatusin with [Mutation R20A, Engineered persulcatusin with [R20A]]	+
Engineered persulcatusin with [Mutation R21A, Engineered persulcatusin with [R21A]]	+
Engineered persulcatusin with [Mutation R38A, Engineered persulcatusin with [R38A]]	+
F2A: persulcatusin (SEQ ID NO: 1) alanine-scan variant F2A (GAGCPFNQGACHRHCRSIGRRGGYCAGLFKQTCTCYSR; listed as Ixodes persulcatus) [Mutation F2A]	−
G1A: persulcatusin (SEQ ID NO: 1) alanine-scan variant G1A (AFGCPFNQGACHRHCRSIGRRGGYCAGLFKQTCTCYSR; listed as Ixodes persulcatus) [Mutation G1A]	−
G22A: persulcatusin (SEQ ID NO: 1) alanine-scan variant G22A (GFGCPFNQGACHRHCRSIGRRAGYCAGLFKQTCTCYSR; listed as Ixodes persulcatus) [Mutation G22A]	−
G23A: persulcatusin (SEQ ID NO: 1) alanine-scan variant G23A (GFGCPFNQGACHRHCRSIGRRGAYCAGLFKQTCTCYSR; listed as Ixodes persulcatus) [Mutation G23A]	−
G27A: persulcatusin (SEQ ID NO: 1) alanine-scan variant G27A (GFGCPFNQGACHRHCRSIGRRGGYCAALFKQTCTCYSR; listed as Ixodes persulcatus) [Mutation G27A]	−
H12A: persulcatusin (SEQ ID NO: 1) alanine-scan variant H12A (GFGCPFNQGACARHCRSIGRRGGYCAGLFKQTCTCYSR; listed as Ixodes persulcatus) [Mutation H12A]	−
H14A: persulcatusin (SEQ ID NO: 1) alanine-scan variant H14A (GFGCPFNQGACHRACRSIGRRGGYCAGLFKQTCTCYSR; listed as Ixodes persulcatus) [Mutation H14A]	−
K30A: persulcatusin (SEQ ID NO: 1) alanine-scan variant K30A (GFGCPFNQGACHRHCRSIGRRGGYCAGLFAQTCTCYSR; listed as Ixodes persulcatus) [Mutation K30A]	−
N7A: persulcatusin (SEQ ID NO: 1) alanine-scan variant N7A (GFGCPFAQGACHRHCRSIGRRGGYCAGLFKQTCTCYSR; listed as Ixodes persulcatus) [Mutation N7A]	−
Q8A: persulcatusin (SEQ ID NO: 1) alanine-scan variant Q8A (GFGCPFNAGACHRHCRSIGRRGGYCAGLFKQTCTCYSR; listed as Ixodes persulcatus) [Mutation Q8A]	−
Q31A: persulcatusin (SEQ ID NO: 1) alanine-scan variant Q31A (GFGCPFNQGACHRHCRSIGRRGGYCAGLFKATCTCYSR; listed as Ixodes persulcatus) [Mutation Q31A]	−
S17A: persulcatusin (SEQ ID NO: 1) alanine-scan variant S17A (GFGCPFNQGACHRHCRAIGRRGGYCAGLFKQTCTCYSR; listed as Ixodes persulcatus) [Mutation S17A]	−

same assay, conditions: random mutagenesis clones of persulcatusin; increase of growth inhibition zones

Substance	Increase in Activity
Engineered persulcatusin with [Mutation S7-140-1, Engineered persulcatusin with [R13S/I18N]]	+
Engineered persulcatusin with [Mutation S7-140-2, Engineered persulcatusin with [R13S]]	+
Engineered persulcatusin with [Mutation S7-140-3, Engineered persulcatusin with [R20S/R21G]]	+
Engineered persulcatusin with [Mutation S7-140-7, Engineered persulcatusin with [R16G/F29V]]	+
Engineered persulcatusin with [Mutation S7-140-8, Engineered persulcatusin with [R21G]]	+
Engineered persulcatusin with [Mutation S7-140-9, Engineered persulcatusin with [A26D]]	+
Engineered persulcatusin with [Mutation S7-140-10, Engineered persulcatusin with [R13S/R21G]]	+
Engineered persulcatusin with [Mutation S7-140-18, Engineered persulcatusin with [N7D/R16S]]	+
Engineered persulcatusin with [Mutation S7-140-34, Engineered persulcatusin with [R13S/R20T]]	++
Engineered persulcatusin with [Mutation S7-140-42, Engineered persulcatusin with [N7D/F29L]]	++
Engineered persulcatusin with [Mutation S7-144-4, Engineered persulcatusin with [G9D/R20S]]	++
Engineered persulcatusin with [Mutation S7-144-11, Engineered persulcatusin with [R16S/R20S]]	++
Engineered persulcatusin with [Mutation S7-144-43, Engineered persulcatusin with [R13S/L28M]]	+
Engineered persulcatusin with [Mutation S7-144-59, Engineered persulcatusin with [R13S/R16K]]	+
Engineered persulcatusin with [Mutation S7-144-75, Engineered persulcatusin with [R13S/A26D]]	++
Engineered persulcatusin with [Mutation S7-156-22, Engineered persulcatusin with [G9D/I18F/F29L]]	+
Engineered persulcatusin with [Mutation S7-156-36, Engineered persulcatusin with [F6S/R13S/R16K/I18V]]	++
Engineered persulcatusin with [Mutation S7-176-3-1, Engineered persulcatusin with [R13S/R21S]]	++
Engineered persulcatusin with [Mutation S7-176-4-1, Engineered persulcatusin with [F6V/R13S/A26D]]	++
Engineered persulcatusin with [Mutation S7-176-5-1, Engineered persulcatusin with [F6L/G9D/R20K]]	++
Engineered persulcatusin with [Mutation S7-192-4, Engineered persulcatusin with [N7D/H14F/R16S]]	++
Engineered persulcatusin with [Mutation S7-192-7, Engineered persulcatusin with [G9D/H14Q]]	++
Engineered persulcatusin with [Mutation S7-192-22, Engineered persulcatusin with [F6L/N7D/H14Q]]	++
Engineered persulcatusin with [Mutation S7-192-26, Engineered persulcatusin with [F6L/G9D/H14Q]]	+++
Engineered persulcatusin with [Mutation S-176-2-1, Engineered persulcatusin with [F6V/R13S]]	++
